From patent US20230131966A1, “FUNGICIDAL AMIDES” (FMC Corporation, priority 2020, published 2023)

Tests used:
Type in all cases: in vivo
Phakopsora pachyrhizi = assay: Test A: Asian soybean rust control on soybean seedlings; conditions: soybean seedlings, 100 = 100% disease control, 0 = no control; for pest or weed control at 250 ppm: Phakopsora pachyrhizi, read-out: Test A disease control rating
[1] = system: Puccinia recondita f. sp. tritici; assay: Test B: wheat leaf rust control on wheat seedlings; conditions: wheat seedlings, 100 = 100% disease control, 0 = no control; for pest or weed control at 250 ppm: Puccinia recondita, read-out: Test B disease control rating
Zymoseptoria tritici = assay: Test C: wheat leaf blotch control on wheat seedlings; conditions: wheat seedlings, 100 = 100% disease control, 0 = no control; for pest or weed control at 250 ppm: Zymoseptoria tritici, read-out: Test C disease control rating
Plasmopara viticola = assay: Test D: grape downy mildew control on grape seedlings; conditions: 100 = 100% disease control, 0 = no control; for pest or weed control at 250 ppm: Plasmopara viticola, read-out: Test D disease control rating
Botrytis cinerea = assay: Test E: tomato Botrytis control on tomato seedlings; conditions: 100 = 100% disease control, 0 = no control; for pest or weed control at 250 ppm: Botrytis cinerea, read-out: Test E disease control rating
Phytophthora infestans = assay: whole plant or invertebrate; conditions: tomato seedlings, 100 = 100% disease control, 0 = no control; for pest or weed control at 250 ppm: Phytophthora infestans, in Solanum lycopersicum, read-out: Test F disease control rating, 250 ppm
[2] = system: Erysiphe graminis f. sp. tritici; assay: Test G: wheat powdery mildew control on wheat seedlings; conditions: 100 = 100% disease control, 0 = no control; for pest or weed control at 250 ppm: Blumeria graminis, read-out: Test G disease control rating

CC(NC(=O)c1cccc(N)c1O)C(=O)OC(C)c1ccccc1Cc1ccccc1 (racemic) [Compound 9]
pest or weed control at 250 ppm (Phakopsora pachyrhizi; 250 ppm): 95%
pest or weed control at 250 ppm ([1]; 250 ppm): 91%
pest or weed control at 250 ppm (Zymoseptoria tritici; 250 ppm): 53%
pest or weed control at 250 ppm (Plasmopara viticola; 250 ppm): 97%
pest or weed control at 250 ppm (Botrytis cinerea; 250 ppm): 0%
pest or weed control at 250 ppm (Phytophthora infestans): 76%
pest or weed control at 250 ppm ([2]; 250 ppm): 0%

COc1ccnc(C(=O)N[C@@H](C)C(=O)OC(C2CCCCC2)C2CCCCC2)c1O [Compound 45]
Test A disease control rating (Phakopsora pachyrhizi; 250 ppm): 100%
Test B disease control rating ([1]; 250 ppm): 0%
Test C disease control rating (Zymoseptoria tritici; 250 ppm): 39%
Test D disease control rating (Plasmopara viticola; 250 ppm): 43%
Test E disease control rating (Botrytis cinerea; 250 ppm): 0%
Test F disease control rating (Phytophthora infestans; 250 ppm): 9%
Test G disease control rating ([2]; 250 ppm): 0%

COc1ccnc(C(=O)NC(C)C(=O)OC(C)c2ncc(C(F)(F)F)cc2Cl)c1O (mixture of isomers) [Compound 166]
Test A disease control rating (Phakopsora pachyrhizi; 250 ppm): 97%
Test B disease control rating ([1]; 250 ppm): 68%
Test C disease control rating (Zymoseptoria tritici; 250 ppm): 0%
Test D disease control rating (Plasmopara viticola; 250 ppm): 15%
Test E disease control rating (Botrytis cinerea; 250 ppm): 0%
Test F disease control rating (Phytophthora infestans; 250 ppm): 0%
Test G disease control rating ([2]; 250 ppm): 0%

COc1ccnc(C(=O)N[C@@H](C)C(=O)OC(C)c2ccc(C3CCCCC3)cc2)c1OCOC(C)=O (single isomer, unassigned) [Compound 147]
Test A disease control rating (Phakopsora pachyrhizi; 250 ppm): 100%
Test B disease control rating ([1]; 250 ppm): 99%
Test C disease control rating (Zymoseptoria tritici; 250 ppm): 95%
Test D disease control rating (Plasmopara viticola; 250 ppm): 38%
Test E disease control rating (Botrytis cinerea; 250 ppm): 0%
Test F disease control rating (Phytophthora infestans; 250 ppm): 71%
Test G disease control rating ([2]; 250 ppm): 94%

COc1cccc(C(=O)NC(C)C(=O)OC(C)C2CCCCC2)c1O (mixture of isomers) [Compound 91]
Test A disease control rating (Phakopsora pachyrhizi; 250 ppm): 0%
Test B disease control rating ([1]; 250 ppm): 0%
Test C disease control rating (Zymoseptoria tritici; 250 ppm): 2%
Test D disease control rating (Plasmopara viticola; 250 ppm): 96%
Test E disease control rating (Botrytis cinerea; 250 ppm): 0%
Test F disease control rating (Phytophthora infestans; 250 ppm): 0%
Test G disease control rating ([2]; 250 ppm): 0%

COc1ccnc(C(=O)N[C@@H](C)C(=O)OC(C)c2ccc(F)cc2Cc2ccccc2)c1O (single isomer, unassigned) [Compound 24]
Test A disease control rating (Phakopsora pachyrhizi; 250 ppm): 97%
Test B disease control rating ([1]; 250 ppm): 68%
Test C disease control rating (Zymoseptoria tritici; 250 ppm): 5%
Test D disease control rating (Plasmopara viticola; 250 ppm): 61%
Test E disease control rating (Botrytis cinerea; 250 ppm): 0%
Test F disease control rating (Phytophthora infestans; 250 ppm): 0%
Test G disease control rating ([2]; 250 ppm): 0%

COc1ccnc(C(=O)NC(C)C(=O)OC(C)c2ccccc2C(F)(F)F)c1O (mixture of isomers) [Compound 17]
Test A disease control rating (Phakopsora pachyrhizi; 150 ppm): 66%
Test B disease control rating ([1]; 150 ppm): 41%
Test C disease control rating (Zymoseptoria tritici; 150 ppm): 92%
Test D disease control rating (Plasmopara viticola; 150 ppm): 23%
Test E disease control rating (Botrytis cinerea; 150 ppm): 0%
Test F disease control rating (Phytophthora infestans; 150 ppm): 0%
Test G disease control rating ([2]; 150 ppm): 0%

COc1ccnc(C(=O)NC(C)C(=O)OC(C)c2ccc(F)cc2Oc2ccccc2)c1OC(C)=O (mixture of isomers) [Compound 85]
Test A disease control rating (Phakopsora pachyrhizi; 250 ppm): 63%
Test B disease control rating ([1]; 250 ppm): 79%
Test C disease control rating (Zymoseptoria tritici; 250 ppm): 67%
Test D disease control rating (Plasmopara viticola; 250 ppm): 62%
Test E disease control rating (Botrytis cinerea; 250 ppm): 0%
Test F disease control rating (Phytophthora infestans; 250 ppm): 0%
Test G disease control rating ([2]; 250 ppm): 0%

CCC(OC(=O)[C@H](C)NC(=O)c1nccc(OC)c1OCOC(=O)C(C)C)c1ccc(C2CCCCC2)cc1 (single isomer, unassigned) [Compound 132]
Test A disease control rating (Phakopsora pachyrhizi; 250 ppm): 75%
Test B disease control rating ([1]; 250 ppm): 68%
Test C disease control rating (Zymoseptoria tritici; 250 ppm): 30%
Test D disease control rating (Plasmopara viticola; 250 ppm): 29%
Test E disease control rating (Botrytis cinerea; 250 ppm): 0%
Test F disease control rating (Phytophthora infestans; 250 ppm): 0%
Test G disease control rating ([2]; 250 ppm): 0%

COc1ccnc(C(=O)NC(C)C(=O)OC(C)C2CCc3ccccc3O2)c1O (mixture of isomers) [Compound 164]
Test A disease control rating (Phakopsora pachyrhizi; 250 ppm): 100%
Test B disease control rating ([1]; 250 ppm): 99%
Test C disease control rating (Zymoseptoria tritici; 250 ppm): 99%
Test D disease control rating (Plasmopara viticola; 250 ppm): 0%
Test E disease control rating (Botrytis cinerea; 250 ppm): 0%
Test F disease control rating (Phytophthora infestans; 250 ppm): 0%
Test G disease control rating ([2]; 250 ppm): 0%

CCC(OC(=O)[C@H](C)NC(=O)c1nccc(OC)c1OCOC(=O)C(C)C)c1ccc(C2CCCCC2)cc1 (single isomer, unassigned) [Compound 133]
Test A disease control rating (Phakopsora pachyrhizi; 250 ppm): 100%
Test B disease control rating ([1]; 250 ppm): 99%
Test C disease control rating (Zymoseptoria tritici; 250 ppm): 93%
Test D disease control rating (Plasmopara viticola; 250 ppm): 24%
Test E disease control rating (Botrytis cinerea; 250 ppm): 0%
Test F disease control rating (Phytophthora infestans; 250 ppm): 0%
Test G disease control rating ([2]; 250 ppm): 0%

COc1ccnc(C(=O)NC(C)C(=O)OC(C)c2ccc(OC3CCCCC3)cc2)c1O (mixture of isomers) [Compound 53]
Test A disease control rating (Phakopsora pachyrhizi; 250 ppm): 56%
Test B disease control rating ([1]; 250 ppm): 55%
Test C disease control rating (Zymoseptoria tritici; 250 ppm): 22%
Test D disease control rating (Plasmopara viticola; 250 ppm): 22%
Test E disease control rating (Botrytis cinerea; 250 ppm): 0%
Test F disease control rating (Phytophthora infestans; 250 ppm): 0%
Test G disease control rating ([2]; 250 ppm): 0%

COc1ccnc(C(=O)N[C@@H](C)C(=O)OC(C)c2ccc(C3CCCCC3)cc2)c1O (mixture of isomers) [Compound 32, N-[(3-hydroxy-4-methoxy-2-pyridinyl)carbonyl]-L-alanine 1-(4-cyclohexylphenyl)ethyl ester]
pest or weed control at 250 ppm (Phakopsora pachyrhizi; 250 ppm): 100%
pest or weed control at 250 ppm ([1]; 250 ppm): 99%
pest or weed control at 250 ppm (Zymoseptoria tritici; 250 ppm): 86%
pest or weed control at 250 ppm (Plasmopara viticola; 250 ppm): 18%
pest or weed control at 250 ppm (Botrytis cinerea; 250 ppm): 0%
pest or weed control at 250 ppm (Phytophthora infestans): 0%
pest or weed control at 250 ppm ([2]; 250 ppm): 0%

COc1ccnc(C(=O)NC(C(=O)OC(C)c2ccc(C3CCCCC3)cc2)C(C)C)c1O (mixture of isomers) [Compound 70]
Test A disease control rating (Phakopsora pachyrhizi; 250 ppm): 100%
Test B disease control rating ([1]; 250 ppm): 100%
Test C disease control rating (Zymoseptoria tritici; 250 ppm): 97%
Test D disease control rating (Plasmopara viticola; 250 ppm): 63%
Test E disease control rating (Botrytis cinerea; 250 ppm): 0%
Test F disease control rating (Phytophthora infestans; 250 ppm): 24%
Test G disease control rating ([2]; 250 ppm): 13%

COc1ccnc(C(=O)N[C@@H](C)C(=O)OC(C)C2CCCCC2)c1OC(C)=O (mixture of isomers) [Compound 29, N-[[3-(acetyloxy)-4-methoxy-2-pyridinyl]carbonyl]-L-alanine 1-cyclohexylethyl ester]
pest or weed control at 250 ppm (Phakopsora pachyrhizi; 250 ppm): 100%
pest or weed control at 250 ppm ([1]; 250 ppm): 99%
pest or weed control at 250 ppm (Zymoseptoria tritici; 250 ppm): 95%
pest or weed control at 250 ppm (Plasmopara viticola; 250 ppm): 17%
pest or weed control at 250 ppm (Botrytis cinerea; 250 ppm): 0%
pest or weed control at 250 ppm (Phytophthora infestans): 33%
pest or weed control at 250 ppm ([2]; 250 ppm): 0%

COc1ccnc(C(=O)NC(C)C(=O)OC(C)c2ccc(F)cc2Oc2ccc(F)cc2)c1O (mixture of isomers) [Compound 82]
Test A disease control rating (Phakopsora pachyrhizi; 250 ppm): 95%
Test B disease control rating ([1]; 250 ppm): 55%
Test C disease control rating (Zymoseptoria tritici; 250 ppm): 79%
Test D disease control rating (Plasmopara viticola; 250 ppm): 82%
Test E disease control rating (Botrytis cinerea; 250 ppm): 0%
Test F disease control rating (Phytophthora infestans; 250 ppm): 0%
Test G disease control rating ([2]; 250 ppm): 0%

COc1ccnc(C(=O)NC(C)C(=O)OC(C)c2ccc(F)cc2Cc2ccccc2)c1O (mixture of isomers) [Compound 12]
Test A disease control rating (Phakopsora pachyrhizi; 250 ppm): 99%
Test B disease control rating ([1]; 250 ppm): 97%
Test C disease control rating (Zymoseptoria tritici; 250 ppm): 0%
Test D disease control rating (Plasmopara viticola; 250 ppm): 83%
Test E disease control rating (Botrytis cinerea; 250 ppm): 0%
Test F disease control rating (Phytophthora infestans; 250 ppm): 0%
Test G disease control rating ([2]; 250 ppm): 0%

COc1ccnc(C(=O)N[C@@H](C)C(=O)OC(C)c2ccccc2Oc2ccc(F)cc2)c1OC(C)=O (single isomer, unassigned) [Compound 57]
Test A disease control rating (Phakopsora pachyrhizi; 250 ppm): 99%
Test B disease control rating ([1]; 250 ppm): 98%
Test C disease control rating (Zymoseptoria tritici; 250 ppm): 88%
Test D disease control rating (Plasmopara viticola; 250 ppm): 16%
Test E disease control rating (Botrytis cinerea; 250 ppm): 0%
Test F disease control rating (Phytophthora infestans; 250 ppm): 0%
Test G disease control rating ([2]; 250 ppm): 0%

COc1ccnc(C(=O)N[C@@H](C)C(=O)OC(C)c2ccc(C(C)C)cc2)c1O (stereo partly drawn) [Compound 118]
Test A disease control rating (Phakopsora pachyrhizi; 250 ppm): 100%
Test B disease control rating ([1]; 250 ppm): 99%
Test C disease control rating (Zymoseptoria tritici; 250 ppm): 86%
Test D disease control rating (Plasmopara viticola; 250 ppm): 85%
Test E disease control rating (Botrytis cinerea; 250 ppm): 0%
Test F disease control rating (Phytophthora infestans; 250 ppm): 0%
Test G disease control rating ([2]; 250 ppm): 0%

COc1ccnc(C(=O)N[C@@H](C)C(=O)OC(C)c2ccc(C3CCCCC3)cc2)c1OCOC(C)=O (single isomer, unassigned) [Compound 146]
Test A disease control rating (Phakopsora pachyrhizi; 250 ppm): 73%
Test B disease control rating ([1]; 250 ppm): 91%
Test C disease control rating (Zymoseptoria tritici; 250 ppm): 91%
Test D disease control rating (Plasmopara viticola; 250 ppm): 31%
Test E disease control rating (Botrytis cinerea; 250 ppm): 0%
Test F disease control rating (Phytophthora infestans; 250 ppm): 0%
Test G disease control rating ([2]; 250 ppm): 60%

COc1ccnc(C(=O)NC(C)C(=O)OC(C)c2ccc(C3CCCC3)cc2)c1OC(C)=O (mixture of isomers) [Compound 64]
Test A disease control rating (Phakopsora pachyrhizi; 50 ppm): 100%
Test B disease control rating ([1]; 50 ppm): 99%
Test C disease control rating (Zymoseptoria tritici; 50 ppm): 13%
Test D disease control rating (Plasmopara viticola; 50 ppm): 86%
Test E disease control rating (Botrytis cinerea; 50 ppm): 0%
Test F disease control rating (Phytophthora infestans; 50 ppm): 0%
Test G disease control rating ([2]; 50 ppm): 0%
